The target of this assay is T1, rat EP4 receptor (Rattus norvegicus, UniProt P43114).
T1 construct: expressed in transfected cells; host or cells: HEK293
Briefly: Evaluation test on rat EP4 receptor affinity ([3H]PGE2 binding assay). As to conditions: [3H]PGE2 0.3 nM; membrane fraction of HEK293 cells expressing rat EP4; room temperature, 1 hour. The procedure:
Evaluation Test on Rat EP4 Receptor Affinity
Cell Culture and Transfection
Using a 10 cm collagen-coated dish (Asahi Glass), HEK293 cells were cultured in a D-MEM culture medium, the culture medium was removed at a confluence (90 to 100% density state) and washed with a phosphate-buffered saline (PBS), and then the cells were detached with N,N,N′,N′-tetrakis(carboxymethyl)ethylenediamine (EDTA). The number of the cells were counted and seeded on a 15 cm collagen-coated dish to a confluence of 70%. The next day, to an Opti-MEM culture medium at 1.2 mL/dish was added Lipofectamine 2000 (Invitrogen) at 60 μL/dish, followed by being left to stand at room temperature for 5 minutes. A plasmid in which a rat EP4 (sequence number 1) had been inserted into a TA cloning site of pcDNA3.1-V5-His-topo was added thereto at 15 μg/dish. After leaving it to stand at room temperature for 30 minutes, the resultant was added to the dish and cultured for 20 to 24 hours. The cell culture was carried out in a CO2 incubator (37° C., 5% CO2).
Preparation of Membrane Fraction
The culture medium was removed by suction, 10 mL of cooled PBS was added thereto per 15 cm dish, and the cells were scraped using a cell scraper (Sumitomo Bakelite). After washing with cooled PBS (1,200 rpm, 4° C., 5 min), and then suspended in 6 mL of cooled 20 mM Tris-HCl (pH 7.4; Nakalai Tesque Inc., including 5 mM EDTA (Nakalai Tesque Inc.) per dish and homogenized using a Polytron, the homogenate was centrifuged (26,000 rpm, 20 min, 4° C.). The obtained precipitate was resuspended in cooled 20 mM Tris-HCl and homogenized again using a Polytron, and the homogenate was centrifuged (26,000 rpm, 20 min, 4° C.). The obtained precipitate was resuspended in 50 mM HEPES (pH 7.5; Dojindo Laboratories) to 1 mL per dish, homogenized using a Polytron, and freeze-stored at −80° C. as a membrane fraction. At this time, a part thereof was used for the measurement of the protein concentration. Measurement of the protein concentration was carried out using a Bio-Rad Protein assay kit (Bio-Rad Laboratories) in accordance with the appended standard Protocol in duplicate.
[^3H] PGE2 μL (final concentration 0.3 nM; Perkin Elmer), 100 μL (20 μg/well) of a membrane fraction prepared from the rat EP4 expression cell and 50 μL of a test compound were mixed in a 96-well microplate (Sumitomo Bakelite), incubated at room temperature for 1 hour, filtered by suction on a UniFilter-96 GF/B (Perkin Elmer) using a FilterMate Harvester (Perkin Elmer), and then washed three times with 300 μL/well of a cooled assay buffer. Dilution of [^3H]PGE2 and the membrane fraction was carried out using an assay buffer (50 mM HEPES, 10 mM MgCl2), and dilution of the test compound and the unlabeled PGE2 was carried out using DMSO and the assay buffer. Further, in the case a human serum albumin (HSA) is added, dilution was carried out using an assay buffer containing 4% HSA (final concentration 1%; Sigma). The UniFilter-96 GF/B was treated by preliminarily washing twice with 200 μL/well of a cooled assay buffer. The UniFilter-96 GF/B after filtration was dried in a dryer overnight, 50 μL/well of MicroScint20 (Perkin Elmer) was added thereto, and then the radioactivity was measured using a TopCount (Perkin Elmer). For measurement of the non-specific binding, an unlabeled PGE2 (final concentration 1 μM; Cayman) was added. All of the measurements were carried out in duplicate, and the specific binding amount was determined by subtracting the non-specific binding amount from the total binding amount.
According to Test method as above, the rat EP4 receptor affinity (Ki) of the compound of the formula (I) was measured. Ex represents Example Compound number.

T1 sequence (P43114 whole entry): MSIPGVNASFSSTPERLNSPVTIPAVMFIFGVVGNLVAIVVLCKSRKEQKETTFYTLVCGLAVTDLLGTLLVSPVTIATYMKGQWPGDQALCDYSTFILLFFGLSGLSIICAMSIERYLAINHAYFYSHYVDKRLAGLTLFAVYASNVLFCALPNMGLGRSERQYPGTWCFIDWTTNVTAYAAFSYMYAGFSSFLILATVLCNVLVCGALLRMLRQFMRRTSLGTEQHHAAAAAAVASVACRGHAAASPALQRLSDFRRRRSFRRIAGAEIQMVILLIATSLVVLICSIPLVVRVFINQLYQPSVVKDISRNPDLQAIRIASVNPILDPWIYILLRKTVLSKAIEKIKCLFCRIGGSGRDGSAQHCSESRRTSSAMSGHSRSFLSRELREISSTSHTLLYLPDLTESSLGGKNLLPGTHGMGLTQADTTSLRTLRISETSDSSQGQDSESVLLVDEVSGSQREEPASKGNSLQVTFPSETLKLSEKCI

One may read the Ki as the dissociation constant of the complex between target and ligand, obtained from inhibition or displacement. Read a low Ki as a stronger hold on the target. For the compound `O=C(NCC1CCC(C(=O)O)CC1)c1cccc2ccn(Cc3ccc(Cl)cc3)c12` (stereo not shown) [Example 110], the Ki came to 12 nM. For `C[C@H](NC(=O)c1ccccc1-n1ccc2cc(Cl)ccc21)c1ccc(C(=O)O)cc1` [Example 50] the value was 15 nM. For `C[C@H](NC(=O)c1cccc2nc(Nc3ccc(Cl)cc3)oc12)c1ccc(C(=O)O)cc1` [Example 46] the value was 11 nM; for `C[C@H](NC(=O)c1sccc1N(C)Cc1ccc(Cl)cc1)c1ccc(C(=O)O)cc1` [Example 7], 16 nM; for `C[C@H](NC(=O)c1cc(Cl)cc2ccn(Cc3ccc(Cl)cc3)c12)c1ccc(C(=O)O)cc1` [Example 21], 0.51 nM. In the case of `C[C@H](NC(=O)c1cccn1Cc1ccc(Cl)cc1)c1ccc(C(=O)O)cc1` [Example 39], the Ki was found to be 37 nM. For `C[C@H](NC(=O)c1cccc2cnn(Cc3ccc(Cl)cc3)c12)c1ccc(C(=O)O)cc1` [Example 47] the value was 5.5 nM.

As to `C[C@H](NC(=O)c1cccc2ccn(Cc3ccc4ccccc4n3)c12)c1ccc(C(=O)O)cc1` [Example 57], the inhibitory constant (Ki) stood at 1.6 nM.

On to `C[C@H](NC(=O)c1cccc2c1N(Cc1ccc(Cl)cc1)CC2)c1ccc(C(=O)O)cc1` [Example 22], for which the affinity, expressed as Ki, was 0.79 nM. For `O=C(O)c1ccc(CNC(=O)c2cccc3ccn(Cc4ccc(Cl)cc4)c23)cc1` [Example 111] the value was 2.6 nM. For `CN(NC(=O)c1cccc2ccn(Cc3ccc(Cl)cc3)c12)c1ccc(C(=O)O)cc1` [Example 8] the value was 0.8 nM; for `CN(NC(=O)c1cc(Cl)cc2ccn(Cc3ccc(Cl)cc3)c12)c1ccc(C(=O)O)cc1` [Example 31], 0.83 nM; for `CC(NC(=O)c1cccc2ccn(Cc3ccc(Cl)cc3)c12)[C@H]1CC[C@H](C(=O)O)CC1` (stereo partly shown) [Example 61], 12 nM. For `C[C@H](NC(=O)c1cccc2ccn(Cc3ccc(Cl)cc3)c12)c1ccc(-c2noc(=O)[nH]2)cc1` [Example 15] the value was 3.5 nM; for `O=C(O)c1ccc2c(ccn2NC(=O)c2ccccc2Cc2ccc(Cl)cc2)c1` [Example 4, 1-{[2-(4-chlorobenzyl)benzoyl]amino}-1H-indole-5-carboxylic acid], 7.5 nM.

In the case of `C[C@H](NC(=O)c1cc2ccccc2n1Cc1ccc(Cl)cc1)c1ccc(C(=O)O)cc1` [Example 37], the Ki turned out to be 9.9 nM.

The values above are taken from US20110028463A1, “AMIDE COMPOUNDS” (Astellas Pharma Inc., priority 2007, published 2011).
